Square brackets hold non-standard residues; d marks the D form. Peptide text beside a SMILES is read from it. * marks the point of attachment. Hydrocinnamoyl = O=C(CCc1ccccc1)*; dCit = NC(=O)NCCC[C@@H](N)C(=O)O; Boc = CC(C)(C)OC(=O)*
Key:
[1] = system: rabbit venous thrombosis model; assay: Rabbit deep vein (venous) thrombosis model; format: in vivo; details: for Hct: mean (SD on next line); for PLT / RBC / WBC: mean±SD
Text: Rabbits were anesthetized with I.M. injections of Ketamine, Xylazine, and Acepromazine cocktail.

[2] = Cuticle bleeding time model in rabbits; format: in vivo, rabbit; details: 1500 μg/kg+14.85 μg/kg/min, bleeding time experiments
Procedure: In an ancillary study, a Cuticle Bleeding Time model was used to evaluate the effect of test compounds on bleeding time (BT) measurements in rabbits. The standardized protocol involved anesthesia and catheterization of rabbits as previously described in this Example 43. To measure BT, a toe nail was cut 5 mm from the base of the cuticle with a canine nail trimming device. Time until cessation of bleeding was recorded by wicking the blood on to BT blotting paper in 30 second intervals. Test compound was administered as a bolus followed by infusion regimen. Two BT measurements were obtained prior to administration of test compound and three BT measurements accomplished serially after initiation of steady state infusion of test compound. BT measurements were allowed to continue for up to 30 minutes at which time it was stopped with application of silver nitrate. Blood samples were obtained just prior to all BT measurements and processed for measurement of hematological and coagulation parameters.

factor Xa = factor Xa (Homo sapiens, UniProt P00742); assay: Factor Xa amidolytic assay (chromogenic substrate S2765); format: biochemical; details: read-out: Inhibitory Activity (IC50) Factor Xa
Sequence of factor Xa (P00742 235-488 limits assumed): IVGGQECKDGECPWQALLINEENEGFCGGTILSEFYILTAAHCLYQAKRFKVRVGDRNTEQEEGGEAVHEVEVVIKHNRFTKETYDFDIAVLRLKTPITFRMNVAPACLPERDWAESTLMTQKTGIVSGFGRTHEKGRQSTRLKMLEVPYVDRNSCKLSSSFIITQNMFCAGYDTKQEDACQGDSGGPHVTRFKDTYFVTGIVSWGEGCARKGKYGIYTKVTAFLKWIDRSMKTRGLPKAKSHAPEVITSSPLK
Sequence of factor Xa (P00742 41-179 limits assumed): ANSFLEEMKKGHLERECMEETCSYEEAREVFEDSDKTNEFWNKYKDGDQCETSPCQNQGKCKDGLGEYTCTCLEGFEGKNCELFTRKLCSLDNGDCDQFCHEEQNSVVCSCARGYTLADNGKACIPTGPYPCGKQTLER

prothrombinase complex = prothrombinase complex (Homo sapiens, UniProt P00742); assay: Prothrombinase inhibition assay, plasma free system (thrombin generation, Chromozym TH); format: biochemical; details: read-out: Inhibitory Activity (IC50) Prothrombinase
Sequence of prothrombinase complex (P00742 235-488 limits assumed): as the sequence (P00742 235-488 limits assumed) above
Sequence of prothrombinase complex (P00742 41-179 limits assumed): as the sequence (P00742 41-179 limits assumed) above
Sequence of prothrombinase complex (P12259 29-737 partner limits assumed): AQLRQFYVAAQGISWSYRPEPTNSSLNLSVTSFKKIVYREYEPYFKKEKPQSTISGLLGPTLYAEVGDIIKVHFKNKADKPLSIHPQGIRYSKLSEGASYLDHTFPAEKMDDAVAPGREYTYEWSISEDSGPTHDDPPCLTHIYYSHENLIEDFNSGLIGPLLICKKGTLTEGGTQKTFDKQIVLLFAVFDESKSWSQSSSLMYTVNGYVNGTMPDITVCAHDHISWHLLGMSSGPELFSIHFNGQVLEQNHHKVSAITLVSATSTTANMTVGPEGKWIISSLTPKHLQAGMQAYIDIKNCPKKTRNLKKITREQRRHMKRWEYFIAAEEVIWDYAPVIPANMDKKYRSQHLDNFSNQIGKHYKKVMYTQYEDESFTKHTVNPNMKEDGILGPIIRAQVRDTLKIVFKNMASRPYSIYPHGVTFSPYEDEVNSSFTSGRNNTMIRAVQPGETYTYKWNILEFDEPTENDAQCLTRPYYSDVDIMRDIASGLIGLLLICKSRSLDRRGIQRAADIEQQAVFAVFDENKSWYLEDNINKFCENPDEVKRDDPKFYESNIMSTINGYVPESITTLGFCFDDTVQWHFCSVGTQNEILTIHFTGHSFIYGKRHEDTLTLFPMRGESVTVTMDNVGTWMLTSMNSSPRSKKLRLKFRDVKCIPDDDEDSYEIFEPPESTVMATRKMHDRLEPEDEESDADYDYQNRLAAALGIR
Sequence of prothrombinase complex (P12259 1574-2224 partner limits assumed): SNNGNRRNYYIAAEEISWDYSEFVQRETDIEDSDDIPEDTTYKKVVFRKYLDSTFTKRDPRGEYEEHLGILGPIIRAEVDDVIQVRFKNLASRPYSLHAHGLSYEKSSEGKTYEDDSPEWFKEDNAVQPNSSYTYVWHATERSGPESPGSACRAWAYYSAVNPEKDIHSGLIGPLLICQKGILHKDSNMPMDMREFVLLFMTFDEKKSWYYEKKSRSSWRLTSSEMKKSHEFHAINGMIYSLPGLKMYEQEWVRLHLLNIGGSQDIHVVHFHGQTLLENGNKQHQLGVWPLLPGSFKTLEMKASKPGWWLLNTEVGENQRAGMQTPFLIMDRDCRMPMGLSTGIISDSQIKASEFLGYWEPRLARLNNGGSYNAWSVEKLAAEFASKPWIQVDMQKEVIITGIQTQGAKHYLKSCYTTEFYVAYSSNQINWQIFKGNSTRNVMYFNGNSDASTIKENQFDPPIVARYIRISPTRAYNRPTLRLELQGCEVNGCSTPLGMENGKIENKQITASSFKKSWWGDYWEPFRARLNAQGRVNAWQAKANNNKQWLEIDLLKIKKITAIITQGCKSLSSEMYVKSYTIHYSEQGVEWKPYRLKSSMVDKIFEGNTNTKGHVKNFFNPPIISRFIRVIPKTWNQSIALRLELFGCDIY

CC(C)(C)OC(=O)N[C@H](CCCNC(=N)N)C(=O)NCC(=O)N[C@H](C=O)CCCNC(=N)N [Boc-D-Arg-Gly-Arg-H] (Boc-[dR]-Gly-Arg-aldehyde)
Hct ([1]; 200 + 1.98 μg/kg + μg/kg/min): 36.9%
PLT ([1]; 200 + 1.98 μg/kg + μg/kg/min): 393 ± 84 × 10^3 /μL
RBC ([1]; 200 + 1.98 μg/kg + μg/kg/min): 5.69 ± 0.14 × 10^6 /μL
WBC ([1]; 200 + 1.98 μg/kg + μg/kg/min): 4.45 ± 0.97 × 10^3 /μL
Hct ([1]; 600 + 5.94 μg/kg + μg/kg/min): 35.3%
PLT ([1]; 600 + 5.94 μg/kg + μg/kg/min): 442 ± 81 × 10^3 /μL
RBC ([1]; 600 + 5.94 μg/kg + μg/kg/min): 5.74 ± 0.48 × 10^6 /μL
WBC ([1]; 600 + 5.94 μg/kg + μg/kg/min): 3.87 ± 0.65 × 10^3 /μL
Hct ([1]; 1000 + 9.90 μg/kg + μg/kg/min): 35.5%
PLT ([1]; 1000 + 9.90 μg/kg + μg/kg/min): 375 ± 73 × 10^3 /μL
RBC ([1]; 1000 + 9.90 μg/kg + μg/kg/min): 5.71 ± 0.28 × 10^6 /μL
WBC ([1]; 1000 + 9.90 μg/kg + μg/kg/min): 5.09 ± 1.61 × 10^3 /μL
Hct ([1]; 1500 + 14.85 μg/kg + μg/kg/min): 36.0%
PLT ([1]; 1500 + 14.85 μg/kg + μg/kg/min): 433 ± 22 × 10^3 /μL
RBC ([1]; 1500 + 14.85 μg/kg + μg/kg/min): 5.80 ± 0.50 × 10^6 /μL
WBC ([1]; 1500 + 14.85 μg/kg + μg/kg/min): 4.82 ± 1.01 × 10^3 /μL
effects on hematological parameters as compared to saline controls ([1]; all dose regimens): no significant effects
antithrombotic efficacy in the rabbit venous thrombosis model ([1]; bolus + infusion, dose range): demonstrated antithrombotic efficacy at the higher doses evaluated
average increase in PT [2]: 1.07 fold
average increase in aPTT [2]: 1.61 fold

CC(C)(C)OC(=O)N[C@H](CCCNC(N)=O)C(=O)NCC(=O)N[C@H](C=O)CCCNC(=N)N [Boc-D-Cit-Gly-Arg-H] (Boc-[dCit]-Gly-Arg-aldehyde)
IC50 (factor Xa): 3000 nM

CN(C)C(=NCCCC[C@@H](NC(=O)OC(C)(C)C)C(=O)NCC(=O)N[C@H](C=O)CCCNC(=N)N)N(C)C [Boc-D-Har((CH3)4)-Gly-Arg-H]
IC50 (factor Xa): 5000 nM
IC50 (prothrombinase complex): 44000 nM

N=C(N)NCCC[C@@H](C=O)NC(=O)CNC(=O)[C@@H](CCCNC(=N)N)NC(=O)C(=O)O [HOOCCO-D-Arg-Gly-Arg-H, Oxaloyl-D-Arg-Gly-Arg-H]
IC50 (prothrombinase complex): 63 nM

N=C(N)NCCC[C@@H](C=O)NC(=O)CNC(=O)[C@@H](CCCNC(=N)N)NC(=O)CCc1ccccc1 [PhCH2 CH2 CO-D-Arg-Gly-Arg-H, 3-Phenylpropanoyl-D-Arg-Gly-Arg-H] (Hydrocinnamoyl-[dR]-Gly-Arg-aldehyde)
IC50 (prothrombinase complex): 1700 nM
